Data published in patent US20230210929A1, “MATERIALS AND METHODS FOR BLOCKING MALARIA INFECTION AND TRANSMISSION” (THE FLORIDA INTERNATIONAL UNIVERSITY BOARD OF TRUSTEES, priority 2021, published 2023).
Values joined by “and” are separate entries in the source; they are usually repeats but may differ in a detail not shown here. Identical values can stand only once. “Also recorded” adds a separate entry of the source.

Experiments:
[1] = tested on: asexual-stage P. falciparum; experiment: Inhibition assay of asexual Plasmodium falciparum proliferation; format: cell-based
Method: The 3-5-day cultured iRBC were mixed with fresh human RBCs (AB+ type) in complete RPMI-1640 to prepare cultures with 0.5% parasitemia and 2% hematocrit. Pulixin was dissolved in DMSO at the concentration of 1 mg/mL and diluted with DMSO to various levels. A 2 μL pulixin solution mixed with 1 mL of cell culture was added to a 24-well plate. The plate was incubated in a candle jar at 37° C. Approximately 48 h later, the medium was replaced with fresh medium containing same concentration of pulixin. Parasitemia was recorded at 24, 48, 72, and 96 h post-incubation. The test for each concentration was replicated three times. EC50 was determined by analyzing the dose-response curve obtained with GraphPad Prism (GraphPad Software, CA, USA). The assays were repeated.

[2] = tested on: human embryonic kidney 293 (HEK293) cells; experiment: General cytotoxicity MTT assay; format: cell-based; settings: 24 h
Method: A drug could kill a cell or inhibit the cell proliferation through general cytotoxicity. Vybrant® MTT (3-(4,5-dimethylthiazol-2-yl)-2,5-diphenyl tetrazolium bromide) Cell Proliferation Assay (Thermo Fisher) was used to analyze living cells. The human embryonic kidney 293 (HEK293) cell line was used as the experimental cells. About 20,000 HEK293 cells in 100 μL of culture medium (RPMI 1640+2 mM glutamine+10% fetal bovine serum) were seeded per well in 96-well microplates. After incubation at 37° C. with 5% CO2 for 24 h, 1 μL of pulixin in DMSO at various dilutions was added into each well to obtain a final concentration of 0, 1, 3, 10, 30, and 100 μg/mL. Three replicates were conducted for each concentration. Following the incubation at 37° C. with 5% CO2 for 24 h, 10 μL, of MTT (5 mg/mL in PBS) was added into each well and incubated for 4 h at 37° C. with 5% CO2. All but 25 μL of the medium was removed from the wells, 100 μL of DMSO was added to each well and incubated at 37° C. for 10 min to dissolve formazan crystals for measurement. Optical density was measured at an absorbance wavelength of 540 nm. The data were analyzed using ANOVA in Prism 8 (GraphPad, San Diego, Calif.). The experiment was independently performed twice.

[3] = tested on: P. falciparum gametocytes; experiment: Conversion ratio from gametocytes to ookinetes; format: cell-based; settings: pulixin 40 μM
Method: P. falciparum (NF54) was cultured in the complete RPMI-1640 medium containing 4% new 0+ human red blood cells, 10% human AB+ serum, and 12.5 μg/mL of hypoxanthine in a candle jar at 37° C. To prepare P. falciparum ookinetes, 5 mL of day-15 cultured P. falciparum containing ˜2% stage V gametocytes were transferred into a 15 mL centrifuge tube and centrifuged at 650×g for 5 min at RT. The pellet was then resuspended in 500 μL of sterile ookinete culture medium (RPMI-1640 medium containing 20% human serum AB+, 50 μg/mL of hypoxanthine, 2 g/L NaHCO3). The resuspended cells were transferred into a well of a 12-well plate and incubated at room temperature on a shaker (20 rpm) for 24 h to generate ookinetes. Finally, cell mixtures of the ookinetes, gametocytes, and asexual-stage P. falciparum were collected by centrifugation at 650×g for 5 min at RT.
The 15-17-day-old cultured P. falciparum was collected by centrifugation at 500×g for 3 min. The pellets were suspended in ookinete culture medium (incomplete RPMI-1640 containing 20% human serum AB+, 50 μg/mL of hypoxanthine, and 2 g/L of NaHCO3) to obtain 10^5 gametocytes per μL. […] After incubation on a shaker (20 rpm) at RT for 18-24 h, the ookinetes and gametocytes were counted using a Giemsa-stained blood smear under a bright-field microscope. The ratios of gametocytes to ookinetes were calculated.

[4] = tested on: P. falciparum transmission to An. gambiae; experiment: Standard membrane feeding assay (SMFA), transmission-blocking activity by feeding; format: in vivo
Method: The 15-17-day-old cultured P. falciparum iRBCs containing 2-3% stage V gametocytes were collected and diluted with new O+ type human blood, with the same volume of heat-inactivated AB+ human serum added. The final concentration of stage V gametocytes in the blood was around 0.2%. Then, 3 μL of the candidate fungal extract or pulixin with different concentrations in DMSO was mixed with 297 μL of infected blood and was used to feed about 100 3-5-day-old An. gambiae G3 female mosquitoes for 30 min, and the engorged mosquitoes were maintained with 8% sugar in a BSL-2 insectary (28° C., 12 h light/dark cycle, 80% humidity). The midguts were dissected 7 days after infection and stained with 0.1% mercury dibromofluorescein disodium salt in PBS. The oocysts were counted under a light microscope.

[5] = tested on: interaction between FREP1 and P. falciparum-infected cell lysate; experiment: ELISA of FREP1 binding to P. falciparum-infected cell lysate; settings: pulixin 5 μg/mL
Method: Small molecules that inhibited the FREP1-Plasmodium interaction to block malaria transmission were screened. In brief, P. falciparum-infected (NF54 obtained from the BEI Resources, Manassas, Va., USA) red blood cells (iRBCs) were cultured for 15-17 days. The iRBCs suspended in PBST (PBS containing 0.2% Tween-20) was homogenized by ultra-sonication with six cycles of 10 s of pulse and 50 s of resting on ice for each period. The lysates were centrifuged at 8,000×g for 2 min to remove insoluble materials and cellular debris. Then, 96-well ELISA plates were coated with 50 μL of the iRBC lysate (2 mg/mL protein) overnight at 4° C. After coating, the wells were blocked with 100 μL of 2% bovine serum albumin (BSA) in PBS per well for 1.5 h at room temperature (RT). After removal of the blocking solution, 49 μL of FREP1 (10 μg/mL) in blocking buffer (PBS containing 2% BSA) and 1 μL of fungal extract (2 mg/mL in DMSO) were added to each well, followed by incubation for 1 h at RT. […] Finally, each well was developed with 50 μL of pNPP substrate (Sigma-Aldrich) until the colors were visible, and absorbance at 405 nm was measured. […]
The 15-17-day cultured P. falciparum infected cell lysate was prepared as described above. […] Rabbit anti-FREP1 polyclonal antibodies quantified the retained FREP1 as described above. After reaction with the pNPP, A405 was measured. […]

## Cc1cc(N)cc2oc(=O)c3c(O)cc(O)cc3c12 [pulixin, 3-amino-7,9-dihydroxy-1-methyl-6H-benzo[c]chromen-6-one]
[1]; Plasmodium falciparum, 96 h, parasitemia on day 4, read-out: EC50 inhibiting development of asexual-stage P. falciparum
  EC50: 0.012 µg/mL and 47 nM
[1]; pulixin greater than 0.01 μg/mL
  P. falciparum-infected cells on day 4 versus control (0 μg/mL): Significantly fewer
[2]; pulixin 0 to 30 μg/mL (116 μM)
  density of living HEK293 cells versus control: No significant difference
[2]; pulixin 100 μg/mL
  density of living HEK293 cells versus other concentrations: significant reduction; also recorded: significantly lower
[3]
  conversion of gametocytes to ookinetes versus control: no significant difference; also recorded: did not inhibit
[4]; Anopheles gambiae, 168 h, read-out: EC50, concentration that inhibits 50% of infection intensity (number of oocysts per mosquito)
  EC50: 11 µM
[4]; pulixin 40 μM in infected blood
  inhibition of malaria transmission: completely inhibited; also recorded: completely blocked
[5]
  inhibition of the interaction between the FREP1 protein and P. falciparum-infected cell lysate: about 50%
